Experimental data taken from US20250339551A1, “AN ANTIBODY-DRUG CONJUGATE HAVING TWO OR MORE DIFFERENT FUNCTIONAL SMALL MOLECULES FOR ENHANCED TREATMENT OF REFRACTORY DISEASES” (HANGZHOU SEEHE BIOTECHNOLOGY CO., LTD, priority 2023, published 2025).

Assays:
[1] = system: C4-2B cell line; type: cell-based; conditions: 120 hours incubation, MTT, n = DAR given with each label
Description: The cell lines used in the cytotoxicity assays were: C4-2B Cells which was obtained from ATCC through license agreement with MD Anderson Cancer Center, Houston, TX, USA. 22RV1, A549, U87, NCI-N87, MKN-7, BxPC-3, JIMT-1, MDA-MB-231, SU86.86, SW1990, OVCAR-3, Calu-3, A431, AsPC-1, CFPAC-1, DMS53, HCC827 and NCI-H1975 cells were purchased from ATCC, Nanjing Cobioer and The Cell Bank of Shanghai Institute of Biochemistry and Cell Biology, and the others. C4-2B and PC-3-4H7 are both Steap1 and PSMA antigen high express cells, but medium expressed of both B7H3 and DLL3 antigens. 22RV1 is low express cells for Steap1, PSMA, B7H3 and DLL3 antigens. U87 is glioblastoma (GBM) cells, NCI-N87 and MKN-7 cell line are stable models of the gastric epithelium. A431 is human epidermoid carcinoma. JIM-1 is trastuzumab-resistant Her2 breast tumor cells. SU86.86, SW1990, CFPAC-1 and AsPC-1 are pancreatic cancer cell lines. OVCAR-3 is ovarian cancer cell lines. Calu-3, HCC827 and NCI-H1975 are a human lung adenocarcinoma. All these cells were grown according to the provider manuals. To run the assay, the cells (180 μl, 6000 cells) were added to each well in a 96-well plate and incubated for 24 hours at 37° C. with 5% CO2. Next, the cells were treated with test compounds (20 μl) at various concentrations in appropriate cell culture medium (total volume, 0.2 mL). The control wells contain cells and the medium but lack the test compounds. The plates were incubated for 120 hours at 37° C. with 5% CO2. MTT (5 mg/mL) was then added to the wells (20 μl) and the plates were incubated for 1.5 hr at 37° C. The medium was carefully removed and DMSO (180 μl) was added afterward. After it was shaken for 15 min, the absorbance was measured at 490 nm and 570 nm with a reference filter of 620 nm. The inhibition % was calculated according to the following equation: […]

[2] = system: GUCY2C-9C9 colon cancer cells; experiment: in vivo activity of anti GUCY2C ADCs (FIG. 15); conditions: anti GUCY2C antibody drug conjugates, DAR=4.0˜4.2, one time administration, 3.0 mg/Kg, over 20 days, compared with anti GUCY2C antibody-GGFG-Dxd
[3] = system: PC-3-4G5 cells; experiment: affinities against PC-3-4G5 cells (FIG. 9); type: binding; conditions: PC-3-4G5 only express highly Steap1 antigens
Description: Since PC-3-4G5 only express highly Steap1 antigens, thus both prepared vandortuzumab and the vandortuzumab-C002 had the good affinity for PC-3-4G5 cells.

[4] = system: C4-2B cells; experiment: affinities against C4-2B cells (FIG. 7); type: binding; conditions: C4-2B cells highly express both Steap1 and PSMA antigens
[5] = system: PC-3-4B9 cells; experiment: affinities against PC-3-4B9 cells (FIG. 8); type: binding; conditions: PC-3-4B9 only express highly PSMA antigens
[6] = system: PC-3 cells; experiment: affinities against nature PC-3 cells (FIG. 10); type: binding; conditions: PC-3 cells do not have either Steap1 or PSMA antigens

## CCc1c2c(nc3cc(F)c(NC(=O)CNC(=O)[C@H](C)NC(=O)[C@@H](NC(=O)[C@H](CCC(=O)NCCOCCOCCNC(=O)c4ccc(C(=O)NCCCCC(=O)NCCCC[C@H](NC(=O)N[C@@H](CCC(=O)O)C(=O)O)C(=O)O)cc4)NC(=O)CCCN4C(=O)CC(S)C4=O)C(C)C)cc13)-c1cc3c(c(=O)n1C2)COC(=O)[C@]3(O)CC (stereo partly drawn) [C040]
[1]
  IC50: 4.27 nM

## CC[C@@]1(O)C(=O)OCc2c1cc1n(c2=O)Cc2c-1nc1cc(F)c(C)c3c1c2[C@@H](NC(=O)OCC[N+](C)(C)Cc1ccc(NC(=O)[C@H](C)NC(=O)[C@@H](NC(=O)[C@H](CCC(=O)NCCOCCOCCNC(=O)c2ccc(C(=O)NCCCCC(=O)NCCCC[C@H](NC(=O)N[C@@H](CCC(=O)O)C(=O)O)C(=O)O)cc2)NC(=O)CCCN2C(=O)CC(S)C2=O)C(C)C)cc1)CC3 (stereo partly drawn) [C044]
[1]
  IC50: 7.87 nM

## CC[C@@]1(O)C(=O)OCc2c1cc1n(c2=O)Cc2c-1nc1cc(F)c(C)c3c1c2[C@@H](NC(=O)OCC[N+](C)(C)Cc1ccc(NC(=O)[C@H](C)NC(=O)[C@@H](NC(=O)[C@H](CCC(=O)N(CCNC(=O)CCOCCOCCNC(=O)c2ccc(C(=O)NCCCCC(=O)NCCCC[C@H](NC(=O)N[C@@H](CCC(=O)O)C(=O)O)C(=O)O)cc2)CCNC(=O)CCOCCOCCNC(=O)c2ccc(C(=O)NCCCCC(=O)NCCCC[C@H](NC(=O)N[C@@H](CCC(=O)O)C(=O)O)C(=O)O)cc2)NC(=O)CCCN2C(=O)CC(S)C2=O)C(C)C)cc1)CC3 (stereo partly drawn) [C045]
[1]
  IC50: 6.76 nM

## CC[C@@]1(O)C(=O)OCc2c1cc1n(c2=O)Cc2c-1nc1cc(F)c(C)c3c1c2[C@@H](NC(=O)[C@H](C)NC(=O)[C@@H](NC(=O)[C@H](CCC(=O)NCCOCCOCCNC(=O)c1ccc(C(=O)NCCCCC(=O)NCCCC[C@H](NC(=O)N[C@@H](CCC(=O)O)C(=O)O)C(=O)O)cc1)NC(=O)C1CCN(C(=O)CS)CC1)C(C)C)CC3 [C060]
[1]
  IC50: 7.57 nM

## CC[C@@]1(O)C(=O)OCc2c1cc1n(c2=O)Cc2c-1nc1cc(F)c(C)c3c1c2[C@@H](NC(=O)OCc1ccc(NC(=O)[C@H](C)NC(=O)[C@@H](NC(=O)[C@H](CCC(=O)N[C@H](C(=O)N[C@@H](C)C(=O)NC(=O)[C@H](CCC(=O)NC(c2ccccc2)(c2ccccc2)c2ccccc2)NC(=O)[C@@H]2CCCN2C(=O)[C@@H]2CCCN2C(=O)[C@H](CCCNC(=N)NC(c2ccccc2)(c2ccccc2)c2ccccc2)NC(=O)[C@H](CCCNC(=N)NC(c2ccccc2)(c2ccccc2)c2ccccc2)NC(=O)[C@H](CCCNC(=N)NC(c2ccccc2)(c2ccccc2)c2ccccc2)NC(=O)[C@H](CCC(=O)NC(c2ccccc2)(c2ccccc2)c2ccccc2)NC(=O)[C@H](CCCNC(=N)NC(c2ccccc2)(c2ccccc2)c2ccccc2)NC(=O)[C@H](CCCNC(=N)NC(c2ccccc2)(c2ccccc2)c2ccccc2)NC(=O)[C@H](CCCCNC(=O)OC(C)(C)C)NC(=O)[C@H](CCCCNC(=O)OC(C)(C)C)NC(=O)[C@H](CCCNC(=N)NC(c2ccccc2)(c2ccccc2)c2ccccc2)NC(=O)CNC(=O)OCC2c4ccccc4-c4ccccc42)C(C)C)NC(=O)CCCNC(=O)[C@H](CCCCNC(=O)COCCOCCOCCOCCOCCOCCOCCOCCOCCOC)NC(=O)CCCN2C(=O)C=CC2=O)C(C)C)cc1C(=O)NCCOCCOCCOCCOCCOCCOCCOCCOC)CC3 [compound 570]
[2]
  in vivo antitumor activity over time: better antitumor activity than the regular GGFG-Dxd conjugate

B1: vandortuzumab-C002 (conjugate, chains of the INN, looked up)
VH: EVQLVESGGGLVQPGGSLRLSCAVSGYSITSDYAWNWVRQAPGKGLEWVGYISNSGSTSYNPSLKSRFTISRDTSKNTLYLQMNSLRAEDTAVYYCARERNYDYDDYYYAMDYWGQGTLVTVSS
VL: DIQMTQSPSSLSASVGDRVTITCKSSQSLLYRSNQKNYLAWYQQKPGKAPKLLIYWASTRESGVPSRFSGSGSGTDFTLTISSLQPEDFATYYCQQYYNYPRTFGQGTKVEIK
modifications: drug conjugate C002
[3]
  affinity against PC-3-4G5 cells: good affinity
[4]
  affinity against C4-2B cells: better affinity for the C4-2B cells than the naked (unconjugated) antibodies
[5]
  affinity against PC-3-4B9 cells: had the affinity
[6]
  affinity against nature PC-3 cells: not able to show the affinity at all
